Numbers after ± are expanded uncertainties.
Columns and labels:
[1] = 101 kPa, Liquid
[2] = xn = mol fraction of the nth substance listed; details: 101 kPa, Liquid

CO [methanol]
[1]
Details | mass density [kg/m3] | viscosity [mPa·s]
308.15 K | 776.92 ± 0.97 | 0.476 ± 0.014
313.15 K | 772.13 ± 0.98 | 0.445 ± 0.013
318.15 K | 767.31 ± 1 | 0.421 ± 0.013
323.15 K | 762.46 ± 1 | 0.395 ± 0.012
328.15 K | 757.85 ± 1 | 0.372 ± 0.012

OCCO [1,2-ethanediol]
[1]
Details | mass density [kg/m3] | viscosity [mPa·s]
308.15 K | 1101.88 ± 0.66 | 11.19 ± 0.21
313.15 K | 1098.33 ± 0.65 | 9.444 ± 0.18
318.15 K | 1094.75 ± 0.64 | 7.972 ± 0.16
323.15 K | 1091.16 ± 0.63 | 6.794 ± 0.14
333.15 K | 1083.94 ± 0.61 | 5.065 ± 0.11
343.15 K | 1074.53 ± 4 | 3.879 ± 0.086
353.15 K | 1069.72 ± 0.57 | 3.058 ± 0.069

OCCO [1,2-ethanediol] + Cc1cccc(O)c1
[2], x2 = 0
Details | mass density [kg/m3] | viscosity [mPa·s]
308.15 K | 1101.88 ± 0.66 | 11.19 ± 0.21
313.15 K | 1098.33 ± 0.65 | 9.444 ± 0.18
318.15 K | 1094.75 ± 0.64 | 7.972 ± 0.16
323.15 K | 1091.16 ± 0.63 | 6.794 ± 0.14
333.15 K | 1083.94 ± 0.61 | 5.065 ± 0.11
343.15 K | 1074.53 ± 4 | 3.879 ± 0.086
353.15 K | 1069.72 ± 0.57 | 3.058 ± 0.069

CO [methanol] + Cc1cccc(O)c1
[2], x2 = 0
Details | mass density [kg/m3] | viscosity [mPa·s]
308.15 K | 776.92 ± 0.97 | 0.476 ± 0.014
313.15 K | 772.13 ± 0.98 | 0.445 ± 0.013
318.15 K | 767.31 ± 1 | 0.421 ± 0.013
323.15 K | 762.46 ± 1 | 0.395 ± 0.012
328.15 K | 757.85 ± 1 | 0.372 ± 0.012

Cc1cccc(O)c1 [3-methylphenol] + CO
[2]
Details | mass density, 308.15 K [kg/m3] | mass density, 313.15 K [kg/m3] | mass density, 318.15 K [kg/m3] | mass density, 323.15 K [kg/m3] | mass density, 328.15 K [kg/m3] | viscosity, 308.15 K [mPa·s] | viscosity, 313.15 K [mPa·s] | viscosity, 318.15 K [mPa·s] | viscosity, 323.15 K [mPa·s] | viscosity, 328.15 K [mPa·s]
x1 = 0.0999 | 838.66 ± 0.79 | 834.09 ± 0.81 | 829.48 ± 0.82 | 824.84 ± 0.83 | 820.44 ± 0.85 | 0.725 ± 0.019 | 0.676 ± 0.018 | 0.621 ± 0.017 | 0.588 ± 0.016 | 0.533 ± 0.015
x1 = 0.1999 | 880.62 ± 0.68 | 876.22 ± 0.69 | 871.78 ± 0.7 | 867.32 ± 0.72 | 863.14 ± 0.73 | 0.976 ± 0.024 | 0.906 ± 0.023 | 0.835 ± 0.021 | 0.783 ± 0.02 | 0.72 ± 0.019
x1 = 0.2998 | 914.11 ± 0.6 | 909.92 ± 0.61 | 905.55 ± 0.62 | 901.14 ± 0.63 | 897.17 ± 0.64 | 1.319 ± 0.032 | 1.205 ± 0.029 | 1.1 ± 0.027 | 1.011 ± 0.025 | 0.933 ± 0.023
x1 = 0.3999 | 939.8 ± 0.55 | 935.58 ± 0.56 | 931.38 ± 0.57 | 927.14 ± 0.58 | 923.28 ± 0.59 | 1.778 ± 0.042 | 1.577 ± 0.037 | 1.419 ± 0.034 | 1.29 ± 0.031 | 1.18 ± 0.029
x1 = 0.4998 | 960.97 ± 0.52 | 956.82 ± 0.53 | 952.74 ± 0.54 | 948.57 ± 0.55 | 944.75 ± 0.55 | 2.367 ± 0.054 | 2.079 ± 0.048 | 1.835 ± 0.043 | 1.646 ± 0.039 | 1.459 ± 0.035
x1 = 0.6001 | 977.35 ± 0.51 | 973.31 ± 0.51 | 969.31 ± 0.52 | 965.28 ± 0.53 | 961.59 ± 0.54 | 2.958 ± 0.067 | 2.556 ± 0.059 | 2.243 ± 0.052 | 1.99 ± 0.046 | 1.788 ± 0.042
x1 = 0.6998 | 991.84 ± 0.51 | 987.87 ± 0.51 | 983.92 ± 0.52 | 979.59 ± 0.52 | 976.07 ± 0.53 | 3.767 ± 0.085 | 3.228 ± 0.073 | 2.789 ± 0.064 | 2.437 ± 0.056 | 2.144 ± 0.05
x1 = 0.7999 | 1002.99 ± 0.52 | 998.97 ± 0.52 | 994.93 ± 0.52 | 990.88 ± 0.53 | 987.18 ± 0.53 | 4.783 ± 0.11 | 4.007 ± 0.09 | 3.418 ± 0.077 | 2.936 ± 0.067 | 2.551 ± 0.059
x1 = 0.8999 | 1013.19 ± 0.57 | 1009.18 ± 0.56 | 1005.13 ± 0.55 | 1001.1 ± 0.54 | 997.41 ± 0.54 | 6.06 ± 0.13 | 4.978 ± 0.11 | 4.153 ± 0.093 | 3.507 ± 0.079 | 2.995 ± 0.068
x1 = 1 | 1021.64 ± 0.61 | 1017.63 ± 0.6 | 1013.6 ± 0.59 | 1009.56 ± 0.58 | 1005.93 ± 0.57 | 7.701 ± 0.15 | 6.12 ± 0.13 | 5.022 ± 0.11 | 4.158 ± 0.094 | 3.518 ± 0.08

Cc1cccc(O)c1 [3-methylphenol]
[1]
Details | mass density [kg/m3] | viscosity [mPa·s]
308.15 K | 1021.64 ± 0.61 | 7.701 ± 0.15
313.15 K | 1017.63 ± 0.6 | 6.12 ± 0.13
318.15 K | 1013.6 ± 0.59 | 5.022 ± 0.11
323.15 K | 1009.56 ± 0.58 | 4.158 ± 0.094
328.15 K | 1005.93 ± 0.57 | 3.518 ± 0.08
333.15 K | 1001.44 ± 0.57 | 2.98 ± 0.068
343.15 K | 991.33 ± 4 | 2.231 ± 0.052
353.15 K | 985.42 ± 0.58 | 1.759 ± 0.042

Source: the NIST ThermoML archive (doi:10.1021/je0504156)
